Laboratory results reported in ChEMBL document CHEMBL5352506, “The Zinc-Binding Group Effect: Lessons from Non-Hydroxamic Acid Vorinostat Analogs” (J Med Chem, 2023).
pIC50: −log10 of the molar value.

Key:
Histone deacetylase = type: cell-based, Homo sapiens; conditions: hela
[1] = target: T1, Protein deacetylase HDAC6 (Homo sapiens, UniProt Q9UBN7); test: Inhibition of human recombinant HDAC6
T1 sequence (Q9UBN7 whole entry): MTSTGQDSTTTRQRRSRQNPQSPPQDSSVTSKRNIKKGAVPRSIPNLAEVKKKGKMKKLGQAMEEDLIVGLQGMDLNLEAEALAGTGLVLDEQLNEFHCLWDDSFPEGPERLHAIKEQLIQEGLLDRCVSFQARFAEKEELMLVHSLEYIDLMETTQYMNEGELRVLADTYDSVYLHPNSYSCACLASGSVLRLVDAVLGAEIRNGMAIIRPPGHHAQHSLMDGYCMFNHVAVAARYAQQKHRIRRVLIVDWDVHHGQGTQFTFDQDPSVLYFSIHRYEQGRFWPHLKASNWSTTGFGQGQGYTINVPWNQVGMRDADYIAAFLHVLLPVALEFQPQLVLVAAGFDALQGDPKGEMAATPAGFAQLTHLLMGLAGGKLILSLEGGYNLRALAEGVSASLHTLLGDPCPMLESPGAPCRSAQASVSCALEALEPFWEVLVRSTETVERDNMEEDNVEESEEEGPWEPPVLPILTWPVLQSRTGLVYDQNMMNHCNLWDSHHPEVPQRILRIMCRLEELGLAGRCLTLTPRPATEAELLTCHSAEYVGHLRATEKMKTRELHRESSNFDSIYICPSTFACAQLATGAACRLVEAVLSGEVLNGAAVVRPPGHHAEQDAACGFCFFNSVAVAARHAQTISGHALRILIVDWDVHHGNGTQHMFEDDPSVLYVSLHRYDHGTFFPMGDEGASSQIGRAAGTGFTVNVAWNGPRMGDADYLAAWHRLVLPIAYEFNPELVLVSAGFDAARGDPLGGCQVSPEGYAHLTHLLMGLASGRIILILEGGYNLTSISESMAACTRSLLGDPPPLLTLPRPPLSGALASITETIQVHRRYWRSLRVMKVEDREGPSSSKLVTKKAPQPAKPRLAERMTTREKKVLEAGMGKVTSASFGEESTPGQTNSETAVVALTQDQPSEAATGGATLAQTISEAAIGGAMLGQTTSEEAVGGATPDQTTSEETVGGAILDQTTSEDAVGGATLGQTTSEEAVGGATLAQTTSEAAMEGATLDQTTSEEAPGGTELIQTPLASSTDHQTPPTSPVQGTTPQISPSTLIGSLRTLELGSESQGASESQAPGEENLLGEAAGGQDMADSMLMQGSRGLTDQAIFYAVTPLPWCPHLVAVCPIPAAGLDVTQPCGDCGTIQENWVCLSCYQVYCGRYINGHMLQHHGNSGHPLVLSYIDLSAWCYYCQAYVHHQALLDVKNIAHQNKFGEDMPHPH

Histone deacetylase 1 = Histone deacetylase 1 (Homo sapiens, UniProt Q13547); test: Inhibition of human recombinant HDAC1
Sequence of Histone deacetylase 1 (Q13547 whole entry): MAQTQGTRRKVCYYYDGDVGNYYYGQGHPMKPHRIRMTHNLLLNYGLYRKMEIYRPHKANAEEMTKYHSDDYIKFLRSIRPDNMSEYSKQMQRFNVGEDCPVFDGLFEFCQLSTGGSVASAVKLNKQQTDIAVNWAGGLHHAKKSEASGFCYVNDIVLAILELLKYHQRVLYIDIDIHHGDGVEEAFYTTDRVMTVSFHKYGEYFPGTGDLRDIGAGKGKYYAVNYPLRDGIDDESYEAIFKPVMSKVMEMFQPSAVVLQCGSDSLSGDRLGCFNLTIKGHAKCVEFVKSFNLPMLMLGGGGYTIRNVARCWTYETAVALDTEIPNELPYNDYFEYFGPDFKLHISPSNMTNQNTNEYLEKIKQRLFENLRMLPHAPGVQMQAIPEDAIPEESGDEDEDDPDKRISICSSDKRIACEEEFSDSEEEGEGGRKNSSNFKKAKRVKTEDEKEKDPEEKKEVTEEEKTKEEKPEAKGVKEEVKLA

[2] = target: T2, Polyamine deacetylase HDAC10 (Homo sapiens, UniProt Q969S8); test: Inhibition of human recombinant HDAC10
T2 sequence (Q969S8 whole entry): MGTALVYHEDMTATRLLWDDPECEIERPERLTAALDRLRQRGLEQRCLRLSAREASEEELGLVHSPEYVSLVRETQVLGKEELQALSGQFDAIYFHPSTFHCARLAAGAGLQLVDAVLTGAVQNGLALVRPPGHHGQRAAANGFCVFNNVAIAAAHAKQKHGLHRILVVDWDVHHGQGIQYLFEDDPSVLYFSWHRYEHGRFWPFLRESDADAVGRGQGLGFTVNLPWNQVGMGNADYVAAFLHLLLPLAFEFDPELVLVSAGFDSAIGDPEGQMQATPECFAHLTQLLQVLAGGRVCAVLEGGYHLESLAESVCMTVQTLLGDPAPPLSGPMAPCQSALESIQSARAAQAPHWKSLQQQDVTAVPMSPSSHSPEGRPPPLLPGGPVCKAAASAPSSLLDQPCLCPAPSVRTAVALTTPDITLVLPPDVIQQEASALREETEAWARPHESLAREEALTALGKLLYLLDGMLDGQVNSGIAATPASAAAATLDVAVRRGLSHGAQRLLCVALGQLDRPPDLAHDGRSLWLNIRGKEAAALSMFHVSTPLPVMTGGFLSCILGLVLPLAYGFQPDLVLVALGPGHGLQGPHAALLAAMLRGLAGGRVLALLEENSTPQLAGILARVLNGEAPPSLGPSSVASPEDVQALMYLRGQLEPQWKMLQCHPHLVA

Histone deacetylase 2 = Histone deacetylase 2 (Homo sapiens, UniProt Q92769)
Sequence of Histone deacetylase 2 (Q92769 whole entry): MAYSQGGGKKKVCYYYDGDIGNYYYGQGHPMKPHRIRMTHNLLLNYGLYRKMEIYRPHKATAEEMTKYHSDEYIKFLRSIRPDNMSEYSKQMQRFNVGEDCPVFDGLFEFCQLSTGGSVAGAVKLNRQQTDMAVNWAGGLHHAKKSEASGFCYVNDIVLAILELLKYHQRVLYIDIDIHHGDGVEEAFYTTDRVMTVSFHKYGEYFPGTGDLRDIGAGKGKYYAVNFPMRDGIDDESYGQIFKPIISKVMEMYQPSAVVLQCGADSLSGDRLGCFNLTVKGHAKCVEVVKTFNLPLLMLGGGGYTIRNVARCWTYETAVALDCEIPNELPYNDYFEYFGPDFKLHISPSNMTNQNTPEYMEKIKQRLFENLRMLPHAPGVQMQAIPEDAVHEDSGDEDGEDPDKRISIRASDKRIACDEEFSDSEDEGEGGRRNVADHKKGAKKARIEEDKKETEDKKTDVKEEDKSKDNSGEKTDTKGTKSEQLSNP

Toxoplasma gondii = test: Antiparasitic activity against Toxoplasma gondii assessed as parasitic growth inhibition; type: functional, organism-based
[3] = Antiproliferative activity against human HC-04 cells assessed as cell growth inhibition measured after 72 hrs by MTT assay; type: functional, cell-based; conditions: HC04, 72 h
HBL-100 = test: Cytotoxicity against human HBL-100 cells assessed as cell growth inhibition; type: toxicity, cell-based
HRT-18 cell line = test: Antiproliferative activity against human HRT-18 cell line assessed as cell growth inhibition measured after 72 hrs by MTT assay; type: functional, cell-based; conditions: HRT-18, 72 h
Histone deacetylase 9 = Histone deacetylase 9 (Homo sapiens, UniProt Q9UKV0); test: Inhibition of human recombinant HDAC9
Sequence of Histone deacetylase 9 (Q9UKV0 whole entry): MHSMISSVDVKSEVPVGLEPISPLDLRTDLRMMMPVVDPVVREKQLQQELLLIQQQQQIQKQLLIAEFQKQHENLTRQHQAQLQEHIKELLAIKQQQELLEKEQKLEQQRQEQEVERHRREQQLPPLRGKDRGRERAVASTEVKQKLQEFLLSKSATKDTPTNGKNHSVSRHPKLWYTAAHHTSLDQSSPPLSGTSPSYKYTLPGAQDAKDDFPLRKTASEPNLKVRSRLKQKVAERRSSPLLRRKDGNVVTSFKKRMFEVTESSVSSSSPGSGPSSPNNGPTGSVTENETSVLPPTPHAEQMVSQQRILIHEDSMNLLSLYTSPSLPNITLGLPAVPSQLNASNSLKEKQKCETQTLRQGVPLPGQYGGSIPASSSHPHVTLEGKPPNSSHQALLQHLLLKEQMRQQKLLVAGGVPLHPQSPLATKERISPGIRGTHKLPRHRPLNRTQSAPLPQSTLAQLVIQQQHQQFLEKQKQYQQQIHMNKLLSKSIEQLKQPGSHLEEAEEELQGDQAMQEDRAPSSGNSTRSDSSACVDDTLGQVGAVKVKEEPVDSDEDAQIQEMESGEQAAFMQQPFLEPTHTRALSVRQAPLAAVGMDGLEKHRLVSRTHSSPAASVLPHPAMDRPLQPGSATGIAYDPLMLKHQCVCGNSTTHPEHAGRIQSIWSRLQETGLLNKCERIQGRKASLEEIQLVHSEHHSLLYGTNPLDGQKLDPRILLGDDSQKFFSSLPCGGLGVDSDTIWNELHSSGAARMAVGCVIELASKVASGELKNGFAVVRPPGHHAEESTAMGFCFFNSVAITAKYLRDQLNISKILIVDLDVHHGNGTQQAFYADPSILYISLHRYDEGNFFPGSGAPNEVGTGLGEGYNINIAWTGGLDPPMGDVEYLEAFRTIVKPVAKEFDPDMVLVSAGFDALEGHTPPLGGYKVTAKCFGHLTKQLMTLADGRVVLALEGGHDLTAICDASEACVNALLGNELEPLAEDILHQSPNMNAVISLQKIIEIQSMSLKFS

Histone deacetylase 4 = Histone deacetylase 4 (Homo sapiens, UniProt P56524); test: Inhibition of human recombinant HDAC4
Sequence of Histone deacetylase 4 (P56524 whole entry): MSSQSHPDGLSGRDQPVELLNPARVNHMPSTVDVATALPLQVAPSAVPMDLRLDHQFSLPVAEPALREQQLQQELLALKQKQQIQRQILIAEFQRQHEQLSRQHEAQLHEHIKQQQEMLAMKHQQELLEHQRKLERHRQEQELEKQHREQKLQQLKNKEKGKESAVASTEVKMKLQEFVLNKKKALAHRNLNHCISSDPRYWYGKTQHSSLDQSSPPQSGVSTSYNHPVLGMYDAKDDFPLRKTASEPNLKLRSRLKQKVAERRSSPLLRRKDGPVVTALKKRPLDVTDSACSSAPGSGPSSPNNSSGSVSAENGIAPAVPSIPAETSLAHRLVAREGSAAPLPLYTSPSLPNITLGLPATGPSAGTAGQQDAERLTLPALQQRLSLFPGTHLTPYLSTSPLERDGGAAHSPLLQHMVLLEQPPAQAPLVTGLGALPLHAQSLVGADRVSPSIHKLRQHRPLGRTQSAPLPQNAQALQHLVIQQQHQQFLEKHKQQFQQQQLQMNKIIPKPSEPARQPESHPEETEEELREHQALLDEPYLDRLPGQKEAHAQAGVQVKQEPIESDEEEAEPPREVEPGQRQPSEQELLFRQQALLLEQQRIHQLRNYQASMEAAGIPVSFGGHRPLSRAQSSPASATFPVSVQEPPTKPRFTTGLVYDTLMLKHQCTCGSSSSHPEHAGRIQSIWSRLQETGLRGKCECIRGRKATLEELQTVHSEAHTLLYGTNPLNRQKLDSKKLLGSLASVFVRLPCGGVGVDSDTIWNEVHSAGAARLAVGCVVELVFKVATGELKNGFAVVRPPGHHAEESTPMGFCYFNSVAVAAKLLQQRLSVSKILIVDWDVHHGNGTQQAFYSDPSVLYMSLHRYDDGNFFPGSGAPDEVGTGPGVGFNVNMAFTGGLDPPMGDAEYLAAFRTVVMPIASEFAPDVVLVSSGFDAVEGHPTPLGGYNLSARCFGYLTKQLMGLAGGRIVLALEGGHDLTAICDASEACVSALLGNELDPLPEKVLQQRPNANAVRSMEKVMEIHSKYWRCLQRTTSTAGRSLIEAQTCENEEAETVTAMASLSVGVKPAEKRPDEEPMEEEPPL

Histone deacetylase 8 = target: T3, Histone deacetylase 8 (Homo sapiens, UniProt Q9BY41); test: Inhibition of human recombinant HDAC8
T3 sequence (Q9BY41 whole entry): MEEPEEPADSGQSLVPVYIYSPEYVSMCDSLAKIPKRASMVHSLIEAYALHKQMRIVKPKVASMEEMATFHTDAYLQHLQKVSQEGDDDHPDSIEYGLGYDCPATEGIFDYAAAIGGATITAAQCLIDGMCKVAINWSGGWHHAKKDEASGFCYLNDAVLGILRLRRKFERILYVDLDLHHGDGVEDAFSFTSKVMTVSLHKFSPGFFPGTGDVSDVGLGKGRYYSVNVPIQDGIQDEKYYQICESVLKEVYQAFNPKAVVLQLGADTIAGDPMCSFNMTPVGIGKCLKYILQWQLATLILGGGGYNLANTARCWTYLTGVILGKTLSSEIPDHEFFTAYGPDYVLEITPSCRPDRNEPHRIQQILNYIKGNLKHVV

Histone deacetylase 5 = Histone deacetylase 5 (Homo sapiens, UniProt Q9UQL6); test: Inhibition of human recombinant HDAC5
Sequence of Histone deacetylase 5 (Q9UQL6 whole entry): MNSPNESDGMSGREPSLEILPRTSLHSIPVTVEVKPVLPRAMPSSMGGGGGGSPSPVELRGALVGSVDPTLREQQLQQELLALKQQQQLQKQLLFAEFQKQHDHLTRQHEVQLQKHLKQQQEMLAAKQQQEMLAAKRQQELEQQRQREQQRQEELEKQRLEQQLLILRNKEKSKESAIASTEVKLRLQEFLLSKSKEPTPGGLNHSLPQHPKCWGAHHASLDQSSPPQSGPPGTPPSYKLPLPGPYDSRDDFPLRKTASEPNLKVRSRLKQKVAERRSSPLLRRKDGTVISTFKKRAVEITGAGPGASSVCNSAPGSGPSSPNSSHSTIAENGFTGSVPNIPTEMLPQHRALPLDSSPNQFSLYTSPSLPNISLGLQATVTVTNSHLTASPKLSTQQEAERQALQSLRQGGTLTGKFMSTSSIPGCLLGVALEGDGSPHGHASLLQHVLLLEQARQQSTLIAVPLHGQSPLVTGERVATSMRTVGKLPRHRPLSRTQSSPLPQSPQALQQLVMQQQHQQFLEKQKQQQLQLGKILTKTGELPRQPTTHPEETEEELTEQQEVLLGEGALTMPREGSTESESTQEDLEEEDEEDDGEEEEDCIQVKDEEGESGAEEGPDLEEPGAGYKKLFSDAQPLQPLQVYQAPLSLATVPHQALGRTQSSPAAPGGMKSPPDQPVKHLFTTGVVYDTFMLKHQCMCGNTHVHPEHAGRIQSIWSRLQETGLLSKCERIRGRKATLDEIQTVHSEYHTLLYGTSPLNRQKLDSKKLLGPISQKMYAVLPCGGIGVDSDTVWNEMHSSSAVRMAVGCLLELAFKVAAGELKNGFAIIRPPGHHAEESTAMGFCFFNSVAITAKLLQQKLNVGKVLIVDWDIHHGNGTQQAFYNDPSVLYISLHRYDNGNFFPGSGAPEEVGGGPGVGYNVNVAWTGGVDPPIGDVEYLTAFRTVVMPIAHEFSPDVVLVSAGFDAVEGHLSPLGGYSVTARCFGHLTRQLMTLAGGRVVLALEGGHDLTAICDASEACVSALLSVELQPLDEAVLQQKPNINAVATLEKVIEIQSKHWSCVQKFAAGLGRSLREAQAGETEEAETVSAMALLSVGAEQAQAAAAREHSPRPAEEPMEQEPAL

Histone deacetylase 11 = target: T4, Histone deacetylase 11 (Homo sapiens, UniProt Q96DB2); test: Inhibition of human recombinant HDAC11
T4 sequence (Q96DB2 whole entry): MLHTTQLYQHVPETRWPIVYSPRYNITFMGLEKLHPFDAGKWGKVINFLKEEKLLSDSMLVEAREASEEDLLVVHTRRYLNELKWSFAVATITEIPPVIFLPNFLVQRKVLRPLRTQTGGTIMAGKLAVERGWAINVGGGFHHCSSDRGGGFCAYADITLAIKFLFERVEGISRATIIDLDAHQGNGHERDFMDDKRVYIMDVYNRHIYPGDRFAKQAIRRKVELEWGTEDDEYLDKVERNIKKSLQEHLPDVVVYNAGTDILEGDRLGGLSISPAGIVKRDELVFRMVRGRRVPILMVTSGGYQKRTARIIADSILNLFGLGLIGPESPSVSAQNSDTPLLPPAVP

[4] = target: Histone deacetylase (HDAC1 and HDAC2) (Homo sapiens, UniProt Q13547+Q92769); test: Inhibition of HDAC1/2 in human K562 nuclear extraction; type: cell-free
Histone deacetylase 3 = Histone deacetylase 3 (Homo sapiens, UniProt O15379); test: Inhibition of human recombinant HDAC3
Sequence of Histone deacetylase 3 (O15379 whole entry): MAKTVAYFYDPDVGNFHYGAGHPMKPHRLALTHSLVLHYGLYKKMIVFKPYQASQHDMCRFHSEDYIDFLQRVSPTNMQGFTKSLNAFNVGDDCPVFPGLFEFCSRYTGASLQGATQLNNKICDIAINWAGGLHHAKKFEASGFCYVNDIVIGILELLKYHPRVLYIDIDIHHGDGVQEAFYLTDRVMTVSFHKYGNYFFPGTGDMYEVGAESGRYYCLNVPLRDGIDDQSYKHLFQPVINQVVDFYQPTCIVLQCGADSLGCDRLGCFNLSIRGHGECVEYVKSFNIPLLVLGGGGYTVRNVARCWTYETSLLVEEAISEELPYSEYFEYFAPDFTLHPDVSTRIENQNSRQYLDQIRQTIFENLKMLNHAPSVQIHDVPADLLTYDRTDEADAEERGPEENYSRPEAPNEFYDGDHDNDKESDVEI

In the case of `O=C(CCCCCCOP(=O)([O-])[O-])Nc1ccccc1.[K+].[K+]`, the IC50 (Histone deacetylase) was 3900 µM.

`O=C(CCCCOP(=O)([O-])[O-])Nc1ccccc1.[K+].[K+]` showed an IC50 (Histone deacetylase) of 2200 µM.

`CC(=O)O[C@H](C)C(=O)CCCCCCC(=O)Nc1ccccc1` gave a pIC50 [1] of less than 3.52 and an IC50 (Histone deacetylase) of 63.8 µM.

In the case of `CCN(CC)C(=S)SSCCCCCC(=O)Nc1ccccc1`, the pIC50 [1] was 7.17, the pIC50 (Histone deacetylase 1) was 7.34 and the pIC50 [2] was 6.85. For the same compound, the IC50 (Histone deacetylase) was 0.7 µM and the pIC50 (Histone deacetylase 2) was 6.74.

With `O=C(CCCCCCNCCS)Nc1ccccc1` the IC50 (Histone deacetylase) was greater than 100 µM.

Compound `C=C1N[C@@](C)(CC)C(=O)N[C@@H](Cc2ccccc2)C(=O)N2C[C@@H](C)C[C@@H]2C(=O)N[C@H]1CCCCCC(=O)[C@@H](C)O` has a pIC50 (Toxoplasma gondii) of 7.54.

In the case of `NC(=S)NC(=O)CCCCCC(=O)Nc1ccccc1`, the pIC50 [3] was 4.62, the “inhibition (INH)” value (HBL-100) was less than 12% and the pIC50 (HRT-18 cell line) was 4.62.

`CCC(=O)CCCCCCC(=O)Nc1ccccc1` showed a pIC50 [1] of less than 3.52 and an IC50 (Histone deacetylase) greater than 100 µM.

Compound `O=C(CCCCNP(=O)([O-])[O-])Nc1ccccc1.[K+].[K+]` has an IC50 (Histone deacetylase) of 360 µM.

In the case of `O=C(CCCCCCC(=O)C(F)(F)F)Nc1ccccc1`, the pIC50 (Histone deacetylase 9) was 5.23, the pIC50 [1] was 5.66 and the pIC50 (Histone deacetylase 4) was 7.40. The pIC50 (Histone deacetylase 8) was 5.77, the pIC50 [2] was 4.72 and the pIC50 (Histone deacetylase 5) was 7.40. For the same compound, the pIC50 (Histone deacetylase 11) was 4.00.

For `CN(C)CCNC(=O)C(=O)CCCCCCOc1ccc(-c2ccccc2)cc1`, the IC50 [4] was greater than 50 µM.

In the case of `NC(=S)NC(=O)CCCCC(=O)Nc1ccccc1`, the pIC50 [3] was 4.52, the “inhibition (INH)” value (HBL-100) was less than 12% and the pIC50 (HRT-18 cell line) was 4.52.

In the case of `COc1cccc(NC(=O)CCCCCC(=O)Nc2ccccc2)c1`, the IC50 (Histone deacetylase) was greater than 1000 µM.

Work on `NC(=O)C(=O)CCCCCCOc1ccc(-c2ccccc2)cc1` yielded an IC50 [4] greater than 50 µM.

`O=C(c1ccc(C(=O)C(F)(F)C(F)(F)F)s1)N1CCc2ccccc21` showed a pIC50 (Histone deacetylase 1) of 5.38 and a pIC50 (Histone deacetylase 3) of 5.54.
